Assay results: patent US8623844B2, “Fosaprepitant dimeglumine intermediate, neutral fosaprepitant, and amorphous fosaprepitant dimeglumine and processes for their preparations” (priority 2008, dated 2014)

What was measured:
[1] = Stability studies of amorphous form, series of XRPD spectra (FIG. 7); format: physicochemical; settings: about 2° C. to about 8° C., relative humidity less than about 60%, about 7 days to about 2 months
Method: The diffractogram was obtained using a Powder X-ray Diffractometer (Philips X'Pert Pro, PANalytical®) with a Cu radiation of λ=1.540598Å. The measurements were carried out from 2 degrees to 50 degrees with times per step of 50 seconds.
The stability data, shown as series of XRPD scans, are substantially in accordance with FIG. 7.

[2] = cited from earlier work

Row | SMILES | stability of amorphous polymorphic form (XRPD) [1] | degradation on storage ([2]; normal ambient temperatures, stored at −20° C. to avoid degradation, J. Med. Chem. 2000, 43, 1234-1241) | stability of amorphous form on exposure ([2]; normal room temperature, as well as about 2° C.-8° C., transforms into crystalline form)
1 | CNC[C@H](O)[C@@H](O)[C@H](O)[C@H](O)CO.CNC[C@H](O)[C@@H](O)[C@H](O)[C@H](O)CO.C[C@@H](O[C@H]1OCCN(Cc2nc(=O)n(P(=O)(O)O)[nH]2)[C@H]1c1ccc(F)cc1)c1cc(C(F)(F)F)cc(C(F)(F)F)c1 [amorphous fosaprepitant dimeglumine, 1-deoxy-1-(methylamino)-D-glucitol[3-[[(2R,3S)-2-[(1R)-1-[3,5-bis(trifluoromethyl)phenyl]-ethoxy]-3-(4-fluorophenyl)-4-morpholinyl]methyl]-2,5-dihydro-5-oxo-1H-1,2,4-triazol-1-yl]phosphonate (2:1) (salt)] | substantially stable |  | 
2 | CNC[C@H](O)[C@@H](O)[C@H](O)[C@H](O)CO.CNC[C@H](O)[C@@H](O)[C@H](O)[C@H](O)CO.C[C@@H](O[C@H]1OCCN(Cc2nn(P(=O)(O)O)c(=O)[nH]2)[C@H]1c1ccc(F)cc1)c1cc(C(F)(F)F)cc(C(F)(F)F)c1 |  | degrades at normal ambient temperatures | loses its stability
